Reference: patent US20260250318A1, “COMPOSITIONS AND METHODS FOR CROSSING THE BLOOD BRAIN BARRIER” (VOYAGER THERAPEUTICS, INC., priority 2022, published 2026)

Tests used:
Settings in all cases: synthetic library passage 3, intravenous, relative to wild-type AAV9
[1] = test system: brain, spinal cord, and DRG of the NHPs; assay: NGS fold enrichment of synthetic library (passage 3) in NHPs, first cross-species screen; assay type: in vivo, cynomolgus macaques (Macaca fascicularis)
Procedure, shortened: (§1)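 Fold enrichment versus wild-type AAV9 was derived by NGS of RT-PCR-amplified RNA from nervous tissue, collected e.g. 28 days after IV dosing […]. The library (passage 3) was given to two NHPs aged 2-4 years and to 6-8-week BALB/c and C57Bl/6 mice (n=3 each).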

[2] = test system: brain; assay: NGS fold enrichment of synthetic library (passage 3) in BALB/c mice, first cross-species screen; assay type: in vivo
Procedure, shortened: as §1

[3] = test system: brain; assay: NGS fold enrichment of synthetic library (passage 3) in C57Bl/6 mice, first cross-species screen; assay type: in vivo
Procedure, shortened: as §1

[4] = RNA from spinal cord of NHPs, NGS
[5] = RNA from brain of BALB/c mice, NGS
[6] = RNA from brain of C57Bl/6 mice, NGS

With GSGKGHSAGQNQQT the “Fold enrichment over AAV9 in the brain of NHPs” value ([1]; RNA NGS, brain of NHPs) was 1.453 fold, the “Fold enrichment over AAV9 in the spinal cord of NHPs” value ([1]; RNA NGS, spinal cord of NHPs) was 0.936 fold and the “Fold enrichment over AAV9 in the brain of Mice (BALB/c)” value (“Fold enrichment over AAV9 … (BALB/c)” below) ([2]; RNA NGS, brain of BALB/c mice) was 1.173 fold. The “Fold enrichment over AAV9 in the brain of Mice (C57Bl/6)” value (from here on “Fold enrichment over AAV9 … (C57Bl/6)”) ([3]; RNA NGS, brain of C57Bl/6 mice) was 1.035 fold.
GSGKNQQRPGLDQT was tested, and the “Fold enrichment over AAV9 in the brain of NHPs” value ([1]; RNA NGS, brain of NHPs) was 1.089 fold, the “Fold enrichment over AAV9 in the spinal cord of NHPs” value ([1]; RNA NGS, spinal cord of NHPs) was 1.557 fold and the “Fold enrichment over AAV9 … (BALB/c)” value ([2]; RNA NGS, brain of BALB/c mice) was 0.385 fold. For the same sequence, the “Fold enrichment over AAV9 … (C57Bl/6)” value ([3]; RNA NGS, brain of C57Bl/6 mice) was 0.583 fold.
With GSGKNQTPIPKGQT the “Fold enrichment over AAV9 in the brain of NHPs” value ([1]; RNA from brain of NHPs, NGS) was 1.339 fold, the “Fold enrichment over AAV9 in the spinal cord of NHPs” value [1, 4] was 5.077 fold and the “Fold enrichment over AAV9 … (BALB/c)” value [2, 5] was 1.154 fold. For the same sequence, the “Fold enrichment over AAV9 … (C57Bl/6)” value [3, 6] was 1.306 fold.
With GSGKVTKQSQNQQT the “Fold enrichment over AAV9 in the brain of NHPs” value ([1]; RNA NGS, brain of NHPs) was 1.095 fold, the “Fold enrichment over AAV9 in the spinal cord of NHPs” value ([1]; RNA NGS, spinal cord of NHPs) was 0.000 fold and the “Fold enrichment over AAV9 … (BALB/c)” value ([2]; RNA NGS, brain of BALB/c mice) was 1.035 fold. The “Fold enrichment over AAV9 … (C57Bl/6)” value ([3]; RNA NGS, brain of C57Bl/6 mice) was 0.928 fold.
With GSGLAHLGGQNQQT the “Fold enrichment over AAV9 in the brain of NHPs” value ([1]; RNA NGS, brain of NHPs) was 1.064 fold, the “Fold enrichment over AAV9 in the spinal cord of NHPs” value ([1]; RNA NGS, spinal cord of NHPs) was 2.191 fold and the “Fold enrichment over AAV9 … (BALB/c)” value ([2]; RNA NGS, brain of BALB/c mice) was 0.794 fold. The “Fold enrichment over AAV9 … (C57Bl/6)” value ([3]; RNA NGS, brain of C57Bl/6 mice) was 0.749 fold.
With GSGLALERSQNQQT the “Fold enrichment over AAV9 in the brain of NHPs” value ([1]; RNA from brain of NHPs, NGS) was 1.311 fold, the “Fold enrichment over AAV9 in the spinal cord of NHPs” value [1, 4] was 0.486 fold and the “Fold enrichment over AAV9 … (BALB/c)” value [2, 5] was 0.096 fold. For the same sequence, the “Fold enrichment over AAV9 … (C57Bl/6)” value [3, 6] was 0.618 fold.
In the case of GSGLDYSQRQNQQT, the “Fold enrichment over AAV9 in the brain of NHPs” value ([1]; RNA NGS, brain of NHPs) is reported as 2.056 fold, the “Fold enrichment over AAV9 in the spinal cord of NHPs” value ([1]; RNA NGS, spinal cord of NHPs) is reported as 0.837 fold and the “Fold enrichment over AAV9 … (BALB/c)” value ([2]; RNA NGS, brain of BALB/c mice) is reported as 0.217 fold. The “Fold enrichment over AAV9 … (C57Bl/6)” value ([3]; RNA NGS, brain of C57Bl/6 mice) was 0.484 fold.
With GSGLGMSTGQNQQT the “Fold enrichment over AAV9 in the brain of NHPs” value ([1]; RNA NGS, brain of NHPs) was 3.110 fold, the “Fold enrichment over AAV9 in the spinal cord of NHPs” value ([1]; RNA NGS, spinal cord of NHPs) was 5.499 fold and the “Fold enrichment over AAV9 … (BALB/c)” value ([2]; RNA NGS, brain of BALB/c mice) was 0.660 fold. The “Fold enrichment over AAV9 … (C57Bl/6)” value ([3]; RNA NGS, brain of C57Bl/6 mice) was 0.458 fold.
GSGLGRAPVQNQQT was tested, and the “Fold enrichment over AAV9 in the brain of NHPs” value ([1]; RNA NGS, brain of NHPs) was 2.503 fold, the “Fold enrichment over AAV9 in the spinal cord of NHPs” value ([1]; RNA NGS, spinal cord of NHPs) was 2.214 fold and the “Fold enrichment over AAV9 … (BALB/c)” value ([2]; RNA NGS, brain of BALB/c mice) was 0.383 fold. For the same sequence, the “Fold enrichment over AAV9 … (C57Bl/6)” value ([3]; RNA NGS, brain of C57Bl/6 mice) was 0.841 fold.
GSGLIRTAAQNQQT was tested, and the “Fold enrichment over AAV9 in the brain of NHPs” value ([1]; RNA NGS, brain of NHPs) was 1.822 fold, the “Fold enrichment over AAV9 in the spinal cord of NHPs” value ([1]; RNA NGS, spinal cord of NHPs) was 8.339 fold and the “Fold enrichment over AAV9 … (BALB/c)” value ([2]; RNA NGS, brain of BALB/c mice) was 0.998 fold. The “Fold enrichment over AAV9 … (C57Bl/6)” value ([3]; RNA NGS, brain of C57Bl/6 mice) was 0.808 fold.
In the case of GSGLKPNVLQNQQT, the “Fold enrichment over AAV9 in the brain of NHPs” value ([1]; RNA from brain of NHPs, NGS) is reported as 1.263 fold, the “Fold enrichment over AAV9 in the spinal cord of NHPs” value [1, 4] is reported as 0.975 fold and the “Fold enrichment over AAV9 … (BALB/c)” value [2, 5] is reported as 0.268 fold. For the same sequence, the “Fold enrichment over AAV9 … (C57Bl/6)” value [3, 6] was 0.701 fold.
In the case of GSGLKWSTLQNQQT, the “Fold enrichment over AAV9 in the brain of NHPs” value ([1]; RNA NGS, brain of NHPs) is reported as 1.556 fold, the “Fold enrichment over AAV9 in the spinal cord of NHPs” value ([1]; RNA NGS, spinal cord of NHPs) is reported as 0.000 fold and the “Fold enrichment over AAV9 … (BALB/c)” value ([2]; RNA NGS, brain of BALB/c mice) is reported as 2.442 fold. For the same sequence, the “Fold enrichment over AAV9 … (C57Bl/6)” value ([3]; RNA NGS, brain of C57Bl/6 mice) was 1.134 fold.
GSGLLHGKLQNQQT was tested, and the “Fold enrichment over AAV9 in the brain of NHPs” value ([1]; RNA NGS, brain of NHPs) was 2.032 fold, the “Fold enrichment over AAV9 in the spinal cord of NHPs” value ([1]; RNA NGS, spinal cord of NHPs) was 2.521 fold and the “Fold enrichment over AAV9 … (BALB/c)” value ([2]; RNA NGS, brain of BALB/c mice) was 0.917 fold. The “Fold enrichment over AAV9 … (C57Bl/6)” value ([3]; RNA NGS, brain of C57Bl/6 mice) was 1.068 fold.
With GSGLLHRAQQNQQT the “Fold enrichment over AAV9 in the brain of NHPs” value ([1]; RNA NGS, brain of NHPs) was 1.569 fold, the “Fold enrichment over AAV9 in the spinal cord of NHPs” value ([1]; RNA NGS, spinal cord of NHPs) was 0.724 fold and the “Fold enrichment over AAV9 … (BALB/c)” value ([2]; RNA NGS, brain of BALB/c mice) was 0.646 fold. The “Fold enrichment over AAV9 … (C57Bl/6)” value ([3]; RNA NGS, brain of C57Bl/6 mice) was 1.583 fold.
GSGLLPLSSQNQQT was tested, and the “Fold enrichment over AAV9 in the brain of NHPs” value ([1]; RNA NGS, brain of NHPs) was 2.612 fold, the “Fold enrichment over AAV9 in the spinal cord of NHPs” value ([1]; RNA NGS, spinal cord of NHPs) was 1.130 fold and the “Fold enrichment over AAV9 … (BALB/c)” value ([2]; RNA NGS, brain of BALB/c mice) was 0.293 fold. The “Fold enrichment over AAV9 … (C57Bl/6)” value ([3]; RNA NGS, brain of C57Bl/6 mice) was 0.501 fold.
In the case of GSGLLYHDQQNQQT, the “Fold enrichment over AAV9 in the brain of NHPs” value ([1]; RNA NGS, brain of NHPs) is reported as 1.565 fold, the “Fold enrichment over AAV9 in the spinal cord of NHPs” value ([1]; RNA NGS, spinal cord of NHPs) is reported as 2.760 fold and the “Fold enrichment over AAV9 … (BALB/c)” value ([2]; RNA NGS, brain of BALB/c mice) is reported as 0.107 fold. The “Fold enrichment over AAV9 … (C57Bl/6)” value ([3]; RNA NGS, brain of C57Bl/6 mice) was 0.405 fold.
In the case of GSGLPDRNLQNQQT, the “Fold enrichment over AAV9 in the brain of NHPs” value ([1]; RNA NGS, brain of NHPs) is reported as 1.471 fold, the “Fold enrichment over AAV9 in the spinal cord of NHPs” value ([1]; RNA NGS, spinal cord of NHPs) is reported as 7.306 fold and the “Fold enrichment over AAV9 … (BALB/c)” value ([2]; RNA NGS, brain of BALB/c mice) is reported as 0.611 fold. For the same sequence, the “Fold enrichment over AAV9 … (C57Bl/6)” value ([3]; RNA NGS, brain of C57Bl/6 mice) was 1.136 fold.
